The source of these data is PubChem BioAssay (NCI).

Test systems include CCRF-CEM leukemia; HL-60(TB) leukemia; HT29 colon; M14 melanoma; MALME-3M melanoma; NCI-H522 lung; SF-268 CNS; SNB-19 CNS; SR leukemia; SN12C renal; NCI/ADR-RES ovarian.
Common to all, as to test: NCI anticancer screen, dose series, 48 h

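Tested at 5 concentrations; 48 h exposure; 96-well plates; endpoints linearly interpolated, else capped at highest concentration. At the GI50, growth is halved. At the TGI there is no net growth.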

For the compound `C/C(=N\NC(=O)c1ccccc1O)c1cccc(/C(C)=N/NC(=O)c2ccccc2O)n1.O=S(=O)([O-])[O-].[Fe+2]`, the GI50 with CCRF-CEM leukemia was 1.42 µM; in the assay on HL-60(TB) leukemia it was 0.156 µM; in the assay on NCI-H522 lung it was above 100 µM; with SNB-19 CNS, above 100 µM. For the same compound, the TGI in the assay with CCRF-CEM leukemia is 5.74 µM; in the assay on HL-60(TB) leukemia it was 0.341 µM; in the assay with HT29 colon, above 100 µM; in the assay on M14 melanoma, above 100 µM; with MALME-3M melanoma, above 100 µM; with NCI-H522 lung, above 100 µM. The TGI with SF-268 CNS, with SNB-19 CNS and in the assay on SR leukemia was above 100 µM in each case.

On to `O=C(N/N=C/c1cc(Br)cc(Br)c1[O-])c1ccccc1O.O=C(N/N=C/c1cc(Br)cc(Br)c1[O-])c1ccccc1O.[Zn+2]`, for which the TGI with HL-60(TB) leukemia worked out at 0.547 µM; in the assay with HT29 colon, 12.3 µM; in the assay with M14 melanoma it was 8.3 µM; with MALME-3M melanoma, 8.77 µM; in the assay on NCI-H522 lung it was 1.47 µM; in the assay with SF-268 CNS, 17.5 µM. For the same compound, the TGI was determined as 12.2 µM in the assay with SNB-19 CNS and 4 µM with SR leukemia.

For the compound `COc1nc(N)c(NC(C)=O)c(=O)n1C`, the TGI with CCRF-CEM leukemia, in the assay on HL-60(TB) leukemia, in the assay on HT29 colon, in the assay with M14 melanoma, in the assay with MALME-3M melanoma and in the assay with SF-268 CNS was above 100 µM throughout. The TGI with SN12C renal, in the assay with SNB-19 CNS and in the assay on SR leukemia was above 100 µM in each case.

For `COc1cc(C2(c3ncc[nH]3)SSSCC2O)ccc1O` (configuration not stated), the TGI was above 53.6 µM in the assay with CCRF-CEM leukemia; above 67.9 µM in the assay on HL-60(TB) leukemia; above 100 µM in the assay on HT29 colon; 90.6 µM in the assay on NCI-H522 lung; above 62.8 µM in the assay with NCI/ADR-RES ovarian; 23.8 µM in the assay on SF-268 CNS. Besides, the TGI with SN12C renal and in the assay with SNB-19 CNS was above 100 µM throughout.

As for `CC1C2C=C(O)C(=O)C(C2=O)C1c1ccccc1` (configuration not stated), the TGI with CCRF-CEM leukemia, with HT29 colon, in the assay on M14 melanoma, in the assay with MALME-3M melanoma, in the assay on NCI-H522 lung and in the assay on SF-268 CNS was above 100 µM in each case. The TGI in the assay on SNB-19 CNS and with SR leukemia was above 100 µM in each case.

As to `CCCCCCCCCOCC(COP(=O)([O-])OCC[N+](C)(C)C)OC` (configuration not stated), the TGI with CCRF-CEM leukemia, with HL-60(TB) leukemia, in the assay with HT29 colon, with MALME-3M melanoma, with NCI-H522 lung and in the assay on NCI/ADR-RES ovarian was above 100 µM in each case. For the same compound, the TGI with SF-268 CNS, in the assay on SN12C renal and in the assay on SNB-19 CNS was above 100 µM in each case.

Turning to `CC1CCC2CC(=O)OC([C@@H]3C(=O)O[C@@H](C4=CCCC4)C4C(C)CCC43)C12` (some centres not stated), the TGI in the assay on CCRF-CEM leukemia is above 100 µM; in the assay with HL-60(TB) leukemia, 65.1 µM; with HT29 colon, above 100 µM; in the assay with M14 melanoma, above 100 µM; in the assay on MALME-3M melanoma, above 100 µM; in the assay on NCI-H522 lung, above 100 µM. Besides, the TGI in the assay on SF-268 CNS, with SN12C renal, in the assay on SNB-19 CNS and in the assay on SR leukemia was above 100 µM throughout.

As to `COc1cc(OC)cc(-c2cc(=O)c3cc4c(cc3[nH]2)OCO4)c1`, the TGI was 4.56 µM in the assay on CCRF-CEM leukemia; 0.714 µM with HL-60(TB) leukemia; above 100 µM in the assay on HT29 colon; above 48.1 µM with M14 melanoma; above 100 µM in the assay on MALME-3M melanoma; 0.593 µM in the assay on NCI-H522 lung. In addition, the TGI with SF-268 CNS was determined as 38.6 µM; in the assay with SN12C renal, 30 µM; with SNB-19 CNS, 72.5 µM; in the assay with SR leukemia, 9.54 µM.

As for `CSCSCC(CO)NC(=O)/C(C)=C\c1c(C)[nH]c(=O)[nH]c1=O` (configuration not stated), the TGI in the assay with CCRF-CEM leukemia, in the assay on HL-60(TB) leukemia, with HT29 colon, with MALME-3M melanoma, in the assay with NCI-H522 lung and with NCI/ADR-RES ovarian was above 250 µM each time. The TGI with SF-268 CNS, with SN12C renal and with SNB-19 CNS was above 250 µM in each case.

On to `O=C(c1ccc(Cl)cc1)c1ccc(OCCCOc2ccc(C(=O)c3ccc(Cl)cc3)cc2Cl)c(Cl)c1`, for which the TGI with CCRF-CEM leukemia, in the assay with HL-60(TB) leukemia, with HT29 colon, in the assay on M14 melanoma, in the assay with MALME-3M melanoma and in the assay on NCI-H522 lung was above 100 µM in each case. Further, the TGI in the assay with SN12C renal, in the assay with SNB-19 CNS and with SR leukemia was above 100 µM each time.

Turning to `CC(C)C1NC(=O)CC(c2ccccc2)N(N=O)C1c1ccccc1` (configuration not stated), the TGI with CCRF-CEM leukemia, in the assay on HL-60(TB) leukemia, in the assay on HT29 colon, with MALME-3M melanoma, in the assay with NCI-H522 lung and in the assay with NCI/ADR-RES ovarian was above 100 µM each time. Further, the TGI with SF-268 CNS, with SN12C renal and in the assay with SNB-19 CNS was above 100 µM each time.
